From US20230256099A1, “Safe Use of Bile Acids and Their Salts as Enhancers for Nasal Delivery of Pharmaceuticals” (priority 2020, published 2023)

Legend:
[1] = aqueous epinephrine, same dose by IM route; cited from earlier work
[2] = aqueous; cited from earlier work
[3] = General toxicity study of bile salt (STC) by IN delivery: clinical pathology and organ histopathology (Example 2); details: rat, in vivo, NOAEL for bile salt (STC) at an IN delivery, relative dose, rats; 0.75 mg / 0.298 kg
Description: Each rat was treated with two (2) IN administrations of the respective formulations in Groups A1-A5.

Row | SMILES | CMC [2] [mM] | also measured
1 | CNC[C@H](O)c1ccc(O)c(O)c1 [epinephrine] | – | bioavailability (BA) based on AUC of plasma concentration, IN relative to IM [1]: approximately 5%
2 | C[C@H](CCC(=O)[O-])[C@H]1CC[C@H]2[C@@H]3[C@H](O)C[C@@H]4C[C@H](O)CC[C@]4(C)[C@H]3C[C@H](O)[C@]12C.[Na+] [SC, sodium cholate] | ~4 | –
3 | C[C@H](CCC(=O)NCCS(=O)(=O)[O-])[C@H]1CC[C@H]2[C@@H]3[C@H](O)C[C@@H]4C[C@H](O)CC[C@]4(C)[C@H]3C[C@H](O)[C@]12C.[Na+] [STC, sodium taurocholate] | – | NOAEL [3]: ≥ 2.5 mg/kg
4 | C[C@H](CCC(=O)[O-])[C@H]1CC[C@H]2[C@@H]3CC[C@@H]4C[C@H](O)CC[C@]4(C)[C@H]3CC[C@]12C.[Na+] [SLC, sodium lithocholate] | ~1 | –
